Data published in ChEMBL document CHEMBL1201862, “PubChem BioAssay data set” (2004).
The source made the active and inactive calls.

Key:
[1] = luciferase reporter signal suppression in cells – H4 neuroglioma cells, luminescence, dose response (AID 1990); assay type: functional, cell-based
[2] = Luminescence Cell-Based Dose Response HTS to Identify Inhibitors of 5'UTR Stem-Loop Driven Prion Protein mRNA Translation in H4 Neuroglioblastoma Cells. [Related pubchem assays: 1827 (Project Summary), 1813 (Primary HTS)]; assay type: functional
[3] = alpha-synuclein stem-loop luciferase translation blockers – H4 neuroglioma cells, luminescence, confirmation (AID 1988); assay type: functional, cell-based
[4] = target: Cytochrome P450 2D6 (Homo sapiens, UniProt P10635)
Chain of Cytochrome P450 2D6 (P10635 whole entry): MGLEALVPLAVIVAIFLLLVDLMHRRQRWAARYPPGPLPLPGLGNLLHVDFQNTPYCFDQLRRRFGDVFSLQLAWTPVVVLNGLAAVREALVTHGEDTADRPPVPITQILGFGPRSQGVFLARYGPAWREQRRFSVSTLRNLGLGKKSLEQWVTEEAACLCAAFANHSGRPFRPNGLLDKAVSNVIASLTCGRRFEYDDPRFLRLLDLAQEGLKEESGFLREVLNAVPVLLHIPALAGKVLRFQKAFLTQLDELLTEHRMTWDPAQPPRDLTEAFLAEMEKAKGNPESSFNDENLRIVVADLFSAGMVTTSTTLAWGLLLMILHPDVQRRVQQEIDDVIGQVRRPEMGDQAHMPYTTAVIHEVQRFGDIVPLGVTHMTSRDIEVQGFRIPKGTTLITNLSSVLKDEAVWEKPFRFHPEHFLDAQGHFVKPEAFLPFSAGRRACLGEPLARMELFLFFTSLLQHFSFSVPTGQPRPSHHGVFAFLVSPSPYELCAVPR

[5] = target: T1, Cytochrome P450 1A2 (Homo sapiens, UniProt P05177);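 note: PubChem cytochrome P450 panel assay, CYP1A2 panel member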
T1 sequence (P05177 whole entry): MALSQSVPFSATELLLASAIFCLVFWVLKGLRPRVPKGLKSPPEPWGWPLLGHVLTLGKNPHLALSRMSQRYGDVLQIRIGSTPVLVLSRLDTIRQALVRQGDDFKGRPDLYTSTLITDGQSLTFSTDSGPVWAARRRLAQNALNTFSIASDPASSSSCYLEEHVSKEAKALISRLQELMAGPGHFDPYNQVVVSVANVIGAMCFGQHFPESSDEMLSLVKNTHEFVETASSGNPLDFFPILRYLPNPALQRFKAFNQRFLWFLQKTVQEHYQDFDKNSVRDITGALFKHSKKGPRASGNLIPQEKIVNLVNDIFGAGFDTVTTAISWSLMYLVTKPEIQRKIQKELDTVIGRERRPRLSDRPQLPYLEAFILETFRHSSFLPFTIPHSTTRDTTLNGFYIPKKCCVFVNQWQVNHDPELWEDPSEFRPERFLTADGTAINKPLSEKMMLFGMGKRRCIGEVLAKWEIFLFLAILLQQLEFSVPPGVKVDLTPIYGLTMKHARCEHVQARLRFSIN

[6] = target: Cytochrome P450 2C19 (Homo sapiens, UniProt P33261); assay: Cytochrome panel assay with activity outcomes. Panel member name: p450-cyp2c19 Compounds with AC50 equal or less than 10 uM are considered active; assay type: functional; conditions: read-out: AC50
Chain of Cytochrome P450 2C19 (P33261 whole entry): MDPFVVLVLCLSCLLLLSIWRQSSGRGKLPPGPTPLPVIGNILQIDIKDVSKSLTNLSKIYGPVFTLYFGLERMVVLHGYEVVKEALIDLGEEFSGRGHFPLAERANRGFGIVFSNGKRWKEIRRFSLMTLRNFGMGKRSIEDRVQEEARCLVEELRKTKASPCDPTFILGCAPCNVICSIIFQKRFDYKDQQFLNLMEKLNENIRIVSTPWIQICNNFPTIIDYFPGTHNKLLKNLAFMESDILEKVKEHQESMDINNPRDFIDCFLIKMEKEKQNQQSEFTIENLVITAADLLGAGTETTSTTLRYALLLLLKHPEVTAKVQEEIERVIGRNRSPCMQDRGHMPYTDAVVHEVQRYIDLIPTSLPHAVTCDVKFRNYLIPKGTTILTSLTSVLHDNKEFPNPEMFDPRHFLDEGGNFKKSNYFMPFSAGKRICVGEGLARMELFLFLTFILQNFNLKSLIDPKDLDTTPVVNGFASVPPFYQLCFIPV

[7] = target: Cytochrome P450 2C9 (Homo sapiens, UniProt P11712)
Chain of Cytochrome P450 2C9 (P11712 whole entry): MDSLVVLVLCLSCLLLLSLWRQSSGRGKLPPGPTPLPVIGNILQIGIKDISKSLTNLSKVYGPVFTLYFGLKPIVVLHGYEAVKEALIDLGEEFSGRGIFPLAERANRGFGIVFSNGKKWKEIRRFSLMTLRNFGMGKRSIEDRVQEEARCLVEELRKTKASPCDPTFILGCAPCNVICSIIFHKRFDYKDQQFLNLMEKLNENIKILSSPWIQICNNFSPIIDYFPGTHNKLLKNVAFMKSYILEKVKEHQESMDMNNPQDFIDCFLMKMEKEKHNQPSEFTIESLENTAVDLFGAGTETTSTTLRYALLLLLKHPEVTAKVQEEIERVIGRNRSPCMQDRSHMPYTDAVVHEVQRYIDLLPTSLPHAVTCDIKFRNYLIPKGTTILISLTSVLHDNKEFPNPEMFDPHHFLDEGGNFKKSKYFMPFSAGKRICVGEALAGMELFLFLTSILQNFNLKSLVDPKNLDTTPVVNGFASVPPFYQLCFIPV

[8] = Trypanosoma cruzi growth suppression in host cells – NIH3T3 host cells, beta-gal luminescence, confirmation (AID 2044); assay type: functional, cell-based;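 note: intracellular parasites grown in NIH/3T3 mouse fibroblasts as host cells; luminescent beta-galactosidase reporter signal from transgenic T. cruzi replicating inside host cells; inhibitors lower the luminescence signal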
[9] = NIH3T3 cell viability loss – ATP luminescence, mouse fibroblasts, counter-screen, dose response (AID 2010); assay type: functional, cell-based;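 note: cells exposed to compound for about 90 hours before reading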
[10] = target: T2, Rac GTPase-activating protein 1 (Homo sapiens, UniProt Q9H0H5); assay: blockers of MgcRacGAP-driven Rac1 GTP hydrolysis – biochemical, ADP Hunter fluorescence, primary and confirmatory, confirmation (AID 624330); assay type: functional
T2 sequence (Q9H0H5 whole entry): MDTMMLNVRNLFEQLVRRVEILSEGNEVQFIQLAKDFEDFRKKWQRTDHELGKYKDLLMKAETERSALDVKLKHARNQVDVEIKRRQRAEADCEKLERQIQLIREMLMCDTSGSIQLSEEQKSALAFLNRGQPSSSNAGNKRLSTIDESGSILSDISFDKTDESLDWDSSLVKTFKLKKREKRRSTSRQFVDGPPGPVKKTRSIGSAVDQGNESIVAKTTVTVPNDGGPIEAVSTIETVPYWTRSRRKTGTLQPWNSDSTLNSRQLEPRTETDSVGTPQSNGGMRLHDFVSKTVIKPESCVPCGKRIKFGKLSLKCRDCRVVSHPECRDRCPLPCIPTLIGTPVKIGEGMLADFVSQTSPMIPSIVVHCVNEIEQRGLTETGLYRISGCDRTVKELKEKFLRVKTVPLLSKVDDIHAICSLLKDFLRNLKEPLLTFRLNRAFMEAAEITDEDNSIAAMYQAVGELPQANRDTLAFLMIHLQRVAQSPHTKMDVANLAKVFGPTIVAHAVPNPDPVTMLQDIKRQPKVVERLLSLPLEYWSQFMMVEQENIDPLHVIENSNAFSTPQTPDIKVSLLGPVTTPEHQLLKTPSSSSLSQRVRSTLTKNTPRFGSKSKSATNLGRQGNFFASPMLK

[11] = Luminescence Cell-Based Dose Response HTS to Identify Activators of Luciferase Translation or Activity in H4 […] Cells. [Related pubchem assays: 1829 (Project Summary), 1814 (Primary HTS)]; assay type: functional
[12] = test system: H4; assay: Luminescence Cell-Based Dose Response HTS to Identify Activators of 5'UTR Stem-Loop Driven Prion Protein mRNA Translation in H4 Neuroglioblastoma Cells. [Related pubchem assays: 1829 (Project Summary), 1814 (Primary HTS)]; assay type: functional; conditions: Homo sapiens

Row | Compound | EC50 [1] | EC50 [2] | EC50 [3] | AC50 [4] | also measured
1 | CCCn1c(N2CCN(CC(=O)c3c(C)n(C)c4ccc(OC)cc34)CC2)nc2c1c(=O)[nH]c(=O)n2C | 18.9 µM (active) | 13.5 µM (active) | > 120 µM (not active) | – | –
2 | COc1cc(-c2nc3ccccn3c2/N=C/c2ccccc2)ccc1O | – | – | – | 28.2 µM (inconclusive) | –
3 | COc1ccc(NC(=O)CN(C)C(=O)c2cccc(S(=O)(=O)N3CCCc4ccccc43)c2)cc1 | > 120 µM (not active) | > 120 µM (not active) | 72.5 µM (active) | – | –
4 | CCOc1ccc(S(=O)(=O)N2CCC(C(=O)NCc3ccco3)CC2)cc1C | 17.5 µM (active) | > 120 µM (not active) | 37.6 µM (active) | – | –
5 | O=C(Cn1c(C(F)(F)F)nc2ccccc21)c1ccccc1 | – | – | – | 15.8 µM (inconclusive) | AC50 [5]: 25.1 µM (inconclusive)
6 | COCC(C)NCc1cccc([N+](=O)[O-])c1 (stereo unspecified) | – | – | – | 14.1 µM (inconclusive) | AC50 [6]: 11.2 µM (inconclusive); AC50 [7]: 0.398 µM (inconclusive)
7 | CCn1cc(-c2nnnn2-c2ccc(Cl)cc2)c(=O)c2ccccc21 | – | – | – | 11.2 µM (inconclusive) | –
8 | CCOc1ccc(NC(=O)NCCN2CCN(c3cccc(C)c3C)CC2)cc1 | > 120 µM (not active) | > 120 µM (not active) | > 120 µM (not active) | – | –
9 | C[C@H]1CN(S(=O)(=O)c2cccc3cnccc23)CCN1 | – | – | – | 39.8 µM (inconclusive) | –
10 | Cc1[nH]c2ccc(-c3nnc(S)n3Cc3ccccc3)cc2c1C | > 120 µM (not active) | > 120 µM (not active) | > 120 µM (not active) | – | –
11 | COc1cccc(C(=O)/C=C/c2ccc(SC)cc2)c1 | – | – | – | 14.1 µM (inconclusive) | AC50 [7]: 10 µM (inconclusive)
12 | CCCCc1nc2[nH]nc(N)c2c2c1CCCC2 | 12.5 µM (active) | > 120 µM (not active) | 12 µM (active) | – | –
13 | Cn1c(=O)[nH]c(=O)c2c1nc(Sc1ncccn1)n2CCCc1ccccc1 | 12.3 µM (active) | 18.4 µM (active) | 83.1 µM (active) | – | –
14 | C=CCc1cc(Cl)ccc1OCCN(C)C | – | – | – | – | EC50 [8]: 0.559 µM (active); EC50 [9]: > 30 µM (not active); IC50 [10]: 157 µM (active)
15 | Cc1c(Cl)cccc1N=C(S)N1CCN(S(=O)(=O)c2cccs2)CC1 | > 120 µM (not active) | 13.1 µM (active) | > 120 µM (not active) | – | –
16 | CC(C)C[C@H](NC(=O)c1nc[nH]c1C(=O)N[C@@H](CC(C)C)C(=O)OC(C)(C)C)C(=O)OC(C)(C)C | 16.8 µM (active) | 13.6 µM (active) | 8.87 µM (active) | – | –
17 | O=C(Nc1ccc(Br)cc1)c1ccc(F)c(S(=O)(=O)N2CCN(c3ccccn3)CC2)c1 | > 120 µM (not active) | 11.5 µM (active) | > 120 µM (not active) | – | –
18 | CCN(CC)CCn1cnc2c3c(OC)cccc3nc-2c1O | > 120 µM (not active) | > 120 µM (not active) | > 120 µM (not active) | – | –
19 | COc1ccc(N2Cc3ccc(OC)c(OC)c3C2=O)cc1 | – | – | – | – | EC50 [11]: 0.379 µM (active)
20 | COc1cc(OC)cc(C(=O)Oc2ccc(/C=N/Nc3nc4ccccc4s3)cc2OC)c1 | – | – | – | – | EC50 [11]: 5.84 µM (active); EC50 [12]: 7.55 µM (active)
21 | NC(=O)c1ccccc1-c1nc(-n2ccnc2)c2ccccc2n1 | – | – | – | 39.8 µM (inconclusive) | –
22 | COc1ccc(N[C@@H]2CCN3C(=O)c4ccccc4[C@@H]3C[C@H]2O)cc1 | – | – | – | – | IC50 [10]: 74.8 µM (active)
